Consider 1 substance from patent US20180371076A1, “MATERNAL TH17 CELLS AND PSYCHIATRIC DISORDERS” (New York University, priority 2017, published 2018).

Assay [1] concerns cortex of the fetal brain. Put plainly: Cortical development: SATB2/TBR1/CTIP2 immunohistochemistry of fetal and adult offspring brain. In kind it is in vivo, mouse. The note with it: offspring of MIA vs PBS-treated mothers.
In the next assay the test system is IL-17Ra mRNA. Put plainly: IL-17Ra mRNA in fetal brain (real-time PCR, in situ hybridization). In kind it is in vivo, mouse. The note with it: E14.5. The procedure:
In Situ Hybridization. E14.5 embryos from PBS or poly(I:C)-treated mothers were collected in ice-cold PBS and subsequently fixed in 4% paraformaldehyde for 4 h at 4° C. Isolated brains were dehydrated in 30% sucrose/PBS solution overnight, and then embedded in Tissue Tek O.C.T. compound (Sakura Finetek, Torrance, Calif.). The blocks were sectioned at 16-μm thickness using a cryostat (Leica). Fluorescent in situ hybridization was performed using a branched cDNA probe with amplification technology (ViewRNA ISH Tissue Assay kit, Panomics, Santa Clara) according to the manufacturer's protocol. […]
Real-Time PCR Total RNA was extracted from the cerebral cortex of E14.5 fetal brain of male embryo (RNase plus mini kit, Qiagen) as well as from the decidua- and the placenta-derived mononuclear cells and reverse transcribed into cDNA using oligodT (ProtoScript first strand cDNA synthesis kit, NEB) according to the manufacturer's instructions. mRNA levels of target genes (il17ra, il17rc, il17a and il6) were quantified with a Real-Time PCR System (CFX connect Real-Time PCR, Bio-Rad) using fluorescent SYBR Green technology (Bio-Rad). […] Changes in relative gene expression normalized to gapdh or actin levels were determined using the relative threshold cycle method based on the Cont-PBS group. […]
(Quantitative PCR measures a nucleic acid by following its amplification.)

Regarding poly(I:C), the “cortical organization by Golgi staining” value in assay [1] is given as “disorganized cortical regions”. The “IL-17Ra mRNA in fetal brain (real-time PCR)” value in the assay on IL-17Ra mRNA (induction of MIA) was “strongly augmented”. Besides, in the assay on IL-17Ra mRNA (poly(I:C) injection of pregnant dams), the “IL-17Ra mRNA in fetal brain cortex (in situ hybridization)” value is on record as “strongly up-regulated”.
